Results from US20250281523A1, “SULFATED GLYCOSAMINOGLYCAN COMPOUNDS, METHODS, AND USES THEREOF” (California Institute of Technology, priority 2024, published 2025).

Key:
FGF2 = biological target: T1, FGF2 (Homo sapiens, UniProt P09038); assay: HS tetrasaccharide microarray binding assay, FGF2; conditions: glycan microarray; for relative binding of FGF2: compound 50 μM, normalized to the compound with greatest binding
T1 construct: purchased Sino Biological
Description: (§1) Heparan sulfate tetrasaccharide microarray fabrication. HS oligosaccharides were dissolved in sodium phosphate buffer (pH 8.5, 50 mM) in 9 concentrations: 200 μM, 100 μM, 50 μM, 25 μM, 12.5 μM, 6.25 μM, 3.13 μM, 1.57 μM, 0.79 μM. The robotic arrayer SX (from Scienion, Berlin, Germany) delivered 414 pL of the solution containing oligosaccharides (9 spots per concentration) to the array slides using dispensing nozzle PDC80, P-2040, under ˜50% relative humidity at 20° C. […] The slides were incubated in a chamber with saturated (NH4)2SO4 solution (81% relative humidity) for 24 h at 20° C., and unreacted HS oligosaccharides were removed from the slides by rinsing with deionized water. The remaining N-hydroxysuccinimide (NHS) ester groups were blocked by placing slides in a solution containing 50 mM ethanolamine in PBST (137 mM NaCl, 13 mM Na2HPO4, 1.6 mM NaH2PO4, 2.7 mM KCl, 0.010% Tween-20) at 50° C. for 1.5 h. Slides were rinsed several times with deionized water, dried by centrifugation, and stored before use.
(§2) HS tetrasaccharide microarray binding assay and array slide processing. The slide was blocked with 10% BSA in TBST (4.0 mL) with gentle rocking at RT for 1 h, followed by submerging in TBST. This condition was empirically determined to reduce nonspecific binding of proteins to the microarray and to provide optimal signal-to-noise ratios. Next, 5.0 μL of the primary detection protein ([…], 0.50 μg/mL) solution was transferred to 2.5 mL of TBST w/1% BSA in a chamber and the slide was incubated with gentle shaking for 1 h at RT. The slide was then washed two times for 5 min each in TBST (4.0 mL) while gently rocking. After the washes, the slide was incubated with the appropriate biotinylated antibody ([…], 0.50 μg/mL) in 1% BSA in TBST solution (3.0 mL) with gentle rocking for 1 h. The slide was then washed two times for 5 min in TBST (5.0 mL) while gently rocking. Next, the slide was incubated with 4.0 mL of Alexa Fluor 647-conjugated streptavidin detection solution (1.0 μg/mL in TBST w/1% BSA) in the dark with gentle rocking for 1 h, washed with TBST (5.0 mL, two times) followed by PBS (45 mL, two times) and ddH2O (45 mL, two times), and then dried under a gentle stream of 0.2 micron-filtered air. For his-tagged FGF2, detection was accomplished with an AF647-labeled anti-his antibody. All incubations and washes were carried out at RT unless otherwise noted. The microarray was scanned and analyzed at 647 nm using an Agilent G2565CA Microarray Scanner, and fluorescence quantification was performed using ImageJ software with correction for local background. To ensure accurate signal quantification, the average signal intensity was calculated over a fixed area for all spots. Results were plotted with Prism 9 software at a single concentration as background corrected fluorescence values normalized to the compound with the highest signal. Bar graphs represent the mean±SD for each compound (50 μM) in nonuplicate. Each experiment was performed 2-3 times. Heat maps were generated in Excel with columns sorted by sulfation status of the amino positions and rows sorted by sulfation status of the 2-O- and 6-O-hydroxyl groups.

FGF4 = biological target: T2, FGF4 (Homo sapiens, UniProt P08620); assay: HS tetrasaccharide microarray binding assay, FGF4; conditions: glycan microarray, compound 50 μM, normalized to the compound with greatest binding
T2 construct: purchased Peprotech
T2 sequence (P08620 31-206): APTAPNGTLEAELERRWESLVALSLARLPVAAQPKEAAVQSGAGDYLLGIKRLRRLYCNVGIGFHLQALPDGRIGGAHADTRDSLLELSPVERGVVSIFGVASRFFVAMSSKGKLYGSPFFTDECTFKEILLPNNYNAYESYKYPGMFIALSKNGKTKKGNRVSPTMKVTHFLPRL
Description: as §1, §2

CXCL8 (interleukin-8) = biological target: T3, CXCL8 (interleukin-8) (Homo sapiens, UniProt P10145); assay: HS tetrasaccharide microarray binding assay, CXCL8; conditions: glycan microarray, compound 50 μM, normalized to the compound with greatest binding
T3 construct: recombinant human IL-8 (CXCL8) (77 a.a.) (>95% purity); purchased Peprotech
T3 sequence (P10145 23-99 limits assumed): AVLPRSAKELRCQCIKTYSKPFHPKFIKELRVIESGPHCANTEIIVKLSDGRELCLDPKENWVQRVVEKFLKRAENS
Description: as §1, §2

T1 sequence (P09038 143-288): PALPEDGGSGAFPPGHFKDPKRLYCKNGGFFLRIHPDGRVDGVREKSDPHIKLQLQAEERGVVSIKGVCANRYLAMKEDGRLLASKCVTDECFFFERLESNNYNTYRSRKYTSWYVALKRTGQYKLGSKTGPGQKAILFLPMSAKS

Row | Substance | FGF2 binding (in words) (FGF2) | relative binding of FGF4 (FGF4) [%] | relative binding of FGF2 (FGF2) [%] | relative binding of CXCL8 (CXCL8 (interleukin-8)) [%]
1 | GlcNS-IdoA-GlcNAc-IdoA2S-R [Compound 7] | abolished FGF2 binding |  |  | 
2 | GlcNAc6S-IdoA2S-GlcNS-IdoA-R [Compound 42] | abolished FGF2 binding |  |  | 
3 | GlcNS-IdoA2S-GlcNAc6S-IdoA-R [Compound 35] |  | 44 | 38 | 33
4 | GlcNAc6S-IdoA2S-GlcNAc6S-IdoA2S-R [Compound 61] |  |  | 2 | 
5 | GlcNS-IdoA2S-GlcNAc-IdoA-R [Compound 15] |  | 16 |  | 
6 | GlcNS6S-IdoA2S-GlcNS6S-IdoA-R [Compound 60] |  | 38 | 39 | 43
7 | GlcNAc-IdoA2S-GlcNS6S-IdoA2S-R [Compound 46] |  | 32 |  | 47
8 | GlcNS-IdoA2S-GlcNS6S-IdoA-R [Compound 36] |  |  |  | 49
9 | GlcNS-IdoA-GlcNAc6S-IdoA-R [Compound 11] |  |  | 0.7 | 3.3
10 | GlcNS-IdoA2S-GlcNAc6S-IdoA2S-R [Compound 47] |  | 95 |  | 100
11 | GlcNS-IdoA2S-GlcNS-IdoA2S-R [Compound 28] |  | 42 |  | 63
12 | GlcNS6S-IdoA2S-GlcNAc-IdoA-R [Compound 43] |  | 16 |  | 
13 | GlcNS6S-IdoA2S-GlcNS-IdoA2S-R [Compound 56] |  | 56 | 63 | 
14 | GlcNS6S-IdoA-GlcNAc6S-IdoA2S-R [Compound 51] | abolished FGF2 binding | 67 | 3 | 47
15 | GlcNAc-IdoA2S-GlcNS-IdoA2S-R [Compound 26] |  |  |  | 43
16 | GlcNS6S-IdoA2S-GlcNAc-IdoA2S-R [Compound 55] |  | 43 |  | 

Row | Substance | FGF2 binding (in words) (FGF2) | relative binding of FGF4 (FGF4) [%] | relative binding of FGF2 (FGF2) [%] | relative binding of CXCL8 (CXCL8 (interleukin-8)) [%]
17 | GlcNS6S-IdoA2S-GlcNAc6S-IdoA2S-R [Compound 63] |  | 100 | 70 | 75
18 | GlcNS6S-IdoA2S-GlcNAc6S-IdoA-R [Compound 59] |  | 83 |  | 53
19 | GlcNAc-IdoA2S-GlcNS6S-IdoA-R [Compound 34] | abolished FGF2 binding |  |  | 
20 | GlcNS6S-IdoA2S-GlcNS6S-IdoA2S-R [Compound 64] |  | 81 | 100 | 
21 | GlcNS-IdoA-GlcNAc6S-IdoA2S-R [Compound 23] | abolished FGF2 binding |  | 2 | 29
22 | GlcNAc6S-IdoA2S-GlcNS6S-IdoA-R [Compound 58] | abolished FGF2 binding | 10 |  | 
23 | GlcNS-IdoA2S-GlcNS6S-IdoA2S-R [Compound 48] |  | 49 | 77 | 61
24 | GlcNAc6S-IdoA2S-GlcNS6S-IdoA2S-R [Compound 62] |  | 27 | 28 | 
25 | GlcNS-IdoA2S-GlcNAc-IdoA2S-R [Compound 27] |  | 35 |  | 25
26 | GlcNAc-IdoA2S-GlcNS-IdoA-R [Compound 14] | abolished FGF2 binding |  |  | 
27 | GlcNS6S-IdoA-GlcNAc6S-IdoA-R [Compound 39] |  | 43 | 2 | 17
28 | GlcNS6S-IdoA-GlcNAc-IdoA2S-R [Compound 31] | abolished FGF2 binding |  |  | 
29 | GlcNS6S-IdoA-GlcNS6S-IdoA-R [Compound 40] |  | 52 | 3 | 
30 | GlcNS6S-IdoA-GlcNS6S-IdoA2S-R [Compound 52] |  |  | 45 | 43
31 | GlcNS-IdoA-GlcNS6S-IdoA2S-R [Compound 24] |  |  |  | 63
